Data as given in patent publication US12508278B2, “Lipid nanoparticle compositions and methods of formulating the same” (ModernaTX, Inc., priority 2021, dated 2025).

What was measured:
Format in all cases: physicochemical
[1] = IG (lipid-mRNA adduct impurity) in binary mixtures of RNA and Compound III, ion pair reversed phase HPLC; settings: for level of IG compared to control binary mixtures: 1 mM agent; for initial rate of IG formation: 5 mM agent, Compound III binaries
Excerpt: To detect and quantify the amount of IG present in LNP formulations comprising polynucleotides and lipid, a protocol was developed (FIG. 2) that included (1) extraction of the polynucleotide molecules (e.g. precipitation, liquid: liquid extraction); (2) assessment of integrity (e.g. purity, length) of the isolated polynucleotides by known methods (e.g. fragment analyzer, gel electrophoresis); and (3) analysis of the isolated polynucleotides by HPLC.
(§1) RNA was extracted from the LNP formulation by precipitation in ammonium acetate in isopropanol; resuspended in water to target a final RNA concentration of 0.1 mg/mL; and assessed by fragment analyzer capillary electrophoresis and ion pair reversed phase HPLC (performed on a Thermo DNApac RP 100×2.1 mm column at 65° C., with mobile phases containing 50 mM dibutylammonium acetate and 100 mM triethylammonium acetate in water and acetonitrile). Elution with an acetonitrile gradient provided an RNA separation primarily driven by mRNA length and sensitive to any added hydrophobic elements. Two prominent peaks were apparent on the HPLC chromatogram (FIG. 2), including a “main peak” comprising non-adduct mRNA and an “IG” peak comprising mRNA with one or more covalent modifications. The mass fraction of RNA containing at least one lipid adduct was determined by integrating the area under the curve (AUC) of all RNA peaks (including products shorter than the full-length product, the full-length product, and the hydrophobic modified RNA) and taking the late-eluting region as an area percent of the total peak area.
Compound III was dissolved in ethanol at a concentration of 4 mg/mL, and the RNA diluted in sodium acetate buffer pH 5.5; the RNA and lipids were then mixed in 25% ethanol. Samples were held at 25° C., and the RNA was periodically extracted by precipitation in isopropanol and analyzed by ion pair reversed phase (FIGS. 5 and 6A, data marked by *).

[2] = IG in binary mixtures of RNA and Compound VI, ion pair reversed phase HPLC; settings: control binary mixture
Procedure: as §1
To determine if treatment with reducing agents or anti-oxidants confers reductions in the percentage of IG formed in binary mixtures of RNA and Compound VI, binary mixtures were prepared with RNA and Compound VI in which the RNA component was prepared with select reducing agents at 5 mM concentration and the percentage of IG in the resulting binary mixtures was quantified according to the protocol detailed in Example 1. The control binary mixtures of RNA and Compound VI contained IG at ˜55 percent after 1 day, ˜70 percent after 2 days, and ˜80 percent after 13 days. In contrast, treatment of binary mixtures of RNA and Compound VI with select reducing agents conferred IG at ˜45 percent after 1 day, ˜55% after 2 days, and ˜60-70% after 13 days (FIG. 17).

[3] = IG in Compound VI LNPs stored in PBS or Tris; settings: 20 mM Tris, 8% sucrose, pH 8 vs 1xPBS pH 7.2, stored at 5 C
[4] = IG in Compound III LNPs buffered with PBS or Tris

SMILES: O=C([O-])CS.[Na+] [sodium thioglycolate]
- level of IG compared to control binary mixtures ([1]; 25 C, after 18 hours): reduced levels of IG

SMILES: O=S([O-])S(=O)(=O)[O-].[Na+].[Na+] [sodium metabisulfite]
- initial rate of IG formation [1]: effective at eliminating the fast initial rate of IG formation
- percentage of IG ([1]; higher concentrations of agent before formulation, removed by dialysis with 20 mM Tris, t=0 h and 24 hours): reduced

SMILES: N[C@@H](CCS)C(=O)O [homo cysteine, homocysteine]
- level of IG compared to control binary mixtures ([1]; 25 C, after 18 hours): reduced levels of IG

SMILES: Clc1ccc(C(c2ccc(Cl)cc2)C(Cl)(Cl)Cl)cc1 [DDT, dichlorodiphenyltrichloroethane]
- level of IG compared to control binary mixtures ([1]; 25 C, after 18 hours): reduced levels of IG

SMILES: [BH4-].[Na+] [sodium borohydrate]
- level of IG compared to control binary mixtures ([1]; 25 C, after 18 hours): reduced levels of IG

SMILES: N[C@@H](CCC(=O)N[C@@H](CS)C(=O)NCC(=O)O)C(=O)O [glutathione]
- level of IG compared to control binary mixtures ([1]; 25 C, after 18 hours): reduced levels of IG

SMILES: O=C(O)CCP(CCC(=O)O)CCC(=O)O [TCEP, tris(2-carboxyethyl)phosphine]
- level of IG compared to control binary mixtures ([1]; 25 C, after 18 hours): reduced levels of IG

SMILES: O=S([O-])([O-])=S.[Na+].[Na+] [sodium thiosulfate]
- level of IG compared to control binary mixtures ([1]; 25 C, after 18 hours): reduced levels of IG

SMILES: CC(=O)N[C@@H](CS)C(=O)O [N-acetyl cysteine]
- level of IG compared to control binary mixtures ([1]; 25 C, after 18 hours): reduced levels of IG
- initial rate of IG formation [1]: effective at eliminating the fast initial rate of IG formation

SMILES: O=S([O-])S(=O)(=O)[O-].[K+].[K+] [potassium metabisulfite]
- level of IG compared to control binary mixtures ([1]; 25 C, after 18 hours): reduced levels of IG
- initial rate of IG formation [1]: effective at eliminating the fast initial rate of IG formation

SMILES: O[C@H](CS)[C@@H](O)CS [DTE, dithioerythritol]
- level of IG compared to control binary mixtures ([1]; 25 C, after 18 hours): reduced levels of IG

SMILES: CCCCCCCCCN(CCCCCCCCC)CCN(CCCCCCCCC)CC(=O)N1CCN(C(=O)CN(CCCCCCCCC)CCCCCCCCC)CC1 [Compound VI]
- percentage of IG ([2]; after 1 day): ~55%
- percentage of IG ([2]; after 2 days): ~70%
- percentage of IG ([2]; after 13 days): ~80%
- percentage of IG, Tris compared to PBS [3]: lower

SMILES: CCCCCCCCCCCOC(=O)CCCCCN(CCO)CCCCCCCC(=O)OC(CCCCCCCC)CCCCCCCC [Compound III, heptadecan-9-yl 8-((2-hydroxyethyl)(6-oxo-6-(undecyloxy)hexyl)amino)octanoate]
- IG formation over time ([1]; chromatographically purified Compound III, up to 99% purity, no detectable N-oxide): still formed IG over time
- percentage of IG ([1]; control binary mixture (Example 6), stored at 25 C, after 1 day): ~15%
- percentage of IG ([1]; control binary mixture (Example 6), stored at 25 C, after 3 days): ~35%
- percentage of IG ([1]; control binary mixture (Example 6), stored at 25 C, after 7 days): ~40%
- percentage of IG ([1]; control binary mixture (Example 11), 25 C, after 18 hours): ~20%
- percentage of IG ([1]; control binary mixture without agent (Example 7), 25 C, after 18 hours): ~35%
- percentage of IG ([1]; control binary mixture without agent (Example 7), after 13 days at 25 C): ~45%
- percentage of IG ([1]; control binary mixture, Compound III not pre-treated (Example 5), after 0 days): ~10%
- percentage of IG ([1]; control binary mixture, Compound III not pre-treated (Example 5), after 5 days): ~40%
- percentage of IG ([1]; control binary mixture, Compound III not pre-treated (Example 5), after 25 days): ~45%
- percentage of IG, Tris compared to PBS ([4]; 100 mM Tris-HCl pH 7.4 vs 1xPBS): lower
- percentage of IG over time ([4]; buffered with Tris (100 mM Tris-HCl pH 7.4), stored at 5 C or 20 C): around 10%

SMILES: O=C(O)CCCC[C@@H]1CCSS1 (racemic) [lipoic acid]
- level of IG compared to control binary mixtures ([1]; 25 C, after 18 hours): reduced levels of IG

SMILES: NCCSSCCN [cystamine]
- level of IG compared to control binary mixtures ([1]; 25 C, after 18 hours): reduced levels of IG

SMILES: O[C@H](CS)[C@H](O)CS [DTT, dithiothreitol]
- level of IG compared to control binary mixtures ([1]; 25 C, after 18 hours): reduced levels of IG
